# Measured values from the supplement of paper PMC10307832.
# Assays:
# Assay in all cases: relative viability (nuclei count vs DMSO), 5 days (fraction); higher = more cells survive
# IMD-0354 + Olaparib = compound: O=C(Nc1cc(C(F)(F)F)cc(C(F)(F)F)c1)c1cc(Cl)ccc1O [IMD-0354] + O=C(c1cc(Cc2n[nH]c(=O)c3ccccc23)ccc1F)N1CCN(C(=O)C2CC2)CC1 [Olaparib] (partner 8 µM)
# How it was run: (§1)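 Cells from lung cancer lines were seeded into 1536-well plates and, one day later, dosed by pin tool. Treatments were either a single drug or a fixed dose of an anchor drug with five library-drug doses (not always all listed) in √10 steps. After 5 days, nuclei were stained in a one-step fixation (final 0.05% Triton X-100, 1% formaldehyde, 1 ug/ml Hoechst) and counted on 4× images, and relative viability is the treated-to-vehicle nuclei ratio, as the median of duplicate plates.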
# CX-5461 + Trametinib = compound: Cc1cnc(CNC(=O)c2c(=O)c3ccc(N4CCCN(C)CC4)nc3n3c2sc2ccccc23)cn1 [CX-5461] + CC(=O)Nc1cccc(-n2c(=O)n(C3CC3)c(=O)c3c(Nc4ccc(I)cc4F)n(C)c(=O)c(C)c32)c1 [Trametinib] (partner 0.02 µM)
# How it was run: as §1
# IMD-0354 + Lapatinib = compound: O=C(Nc1cc(C(F)(F)F)cc(C(F)(F)F)c1)c1cc(Cl)ccc1O [IMD-0354] + CS(=O)(=O)CCNCc1ccc(-c2ccc3ncnc(Nc4ccc(OCc5cccc(F)c5)c(Cl)c4)c3c2)o1 [Lapatinib] (partner 2 µM)
# How it was run: as §1
# CX-5461 + Pictilisib = compound: Cc1cnc(CNC(=O)c2c(=O)c3ccc(N4CCCN(C)CC4)nc3n3c2sc2ccccc23)cn1 [CX-5461] + CS(=O)(=O)N1CCN(Cc2cc3nc(-c4cccc5[nH]ncc45)nc(N4CCOCC4)c3s2)CC1 [Pictilisib] (partner 1 µM)
# How it was run: as §1
cell line,measurement,setting,value
UMC-11,relative viability,IMD-0354 + Olaparib; first compound 0.04 µM,0.368
same,relative viability,IMD-0354 + Olaparib; first compound 0.1265 µM,0.332
same,relative viability,IMD-0354 + Olaparib; first compound 0.4 µM,0.278
same,relative viability,IMD-0354 + Olaparib; first compound 1.265 µM,0.182
same,relative viability,IMD-0354 + Olaparib; first compound 4 µM,0.178
same,relative viability,CX-5461 + Trametinib; first compound 0.01 µM,0.685
same,relative viability,CX-5461 + Trametinib; first compound 0.03162 µM,0.769
same,relative viability,CX-5461 + Trametinib; first compound 0.1 µM,0.762
same,relative viability,CX-5461 + Trametinib; first compound 0.3162 µM,0.317
same,relative viability,CX-5461 + Trametinib; first compound 1 µM,0.249
same,relative viability,IMD-0354 + Lapatinib; first compound 0.04 µM,1.07
same,relative viability,IMD-0354 + Lapatinib; first compound 0.1265 µM,0.939
same,relative viability,IMD-0354 + Lapatinib; first compound 0.4 µM,0.622
same,relative viability,IMD-0354 + Lapatinib; first compound 1.265 µM,0.239
same,relative viability,IMD-0354 + Lapatinib; first compound 4 µM,0.232
same,relative viability,CX-5461 + Pictilisib; first compound 0.01 µM,0.869
same,relative viability,CX-5461 + Pictilisib; first compound 0.03162 µM,0.835
same,relative viability,CX-5461 + Pictilisib; first compound 0.1 µM,0.76
same,relative viability,CX-5461 + Pictilisib; first compound 0.3162 µM,0.149
same,relative viability,CX-5461 + Pictilisib; first compound 1 µM,0.259
